Data on 13 molecules can be found in PMC7316778 (Nature Communications, 2020).

Holding throughout (design): human FES cDNA encoding residues 448–822 or human FER cDNA encoding residues 448–820 was amplified by PCR; made in house; host or cells: E. coli BL21(DE3), co-expressing YopH phosphatase
For test [1], the target named is T1, FES^S700C (Homo sapiens, UniProt P07332, S700C). Put plainly: PamChip microarray peptide phosphorylation. The test is classed as biochemical. Conditions: for Mean signal, time course: Figure 7f, S700C + WEL028, n 3; for Relative phosphorylation (% of highest signal): peptide substrate phosphorylated by FES - S700C.
T1 sequence (P07332 448-822 S700C): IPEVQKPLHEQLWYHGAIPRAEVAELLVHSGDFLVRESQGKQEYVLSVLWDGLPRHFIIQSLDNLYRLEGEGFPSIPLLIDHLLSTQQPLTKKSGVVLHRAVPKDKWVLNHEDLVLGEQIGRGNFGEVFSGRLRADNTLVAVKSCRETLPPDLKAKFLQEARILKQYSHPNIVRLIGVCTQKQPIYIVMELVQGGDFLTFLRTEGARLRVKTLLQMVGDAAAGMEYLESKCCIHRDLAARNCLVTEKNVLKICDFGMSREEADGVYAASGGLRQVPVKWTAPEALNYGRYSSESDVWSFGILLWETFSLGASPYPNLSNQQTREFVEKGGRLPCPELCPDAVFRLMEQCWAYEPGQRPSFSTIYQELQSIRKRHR
Test [2] has as its target T1, FES^S700C. Put plainly: In vitro TR-FRET kinase assay. The test is classed as biochemical. The following applies: TR-FRET assay, 5 µM ATP; n = 3; read-out: pIC50 FES^S700C (converted). (In general: Time-resolved FRET reads energy transfer from a long-lived donor to a nearby acceptor.)
For test [3], the target named is T1, FES^S700C. Kind of test: MS identification of covalent inhibitor-peptide adduct. Conditions: 1 μM, 30 min, rt. On the procedure:
Purified FES^S700C (1.2 μg in 38 μL) was treated with WEL028 (2 μL of 20× concentrated stock in DMSO, 1 μM final concentration) or vehicle (as negative control) for 30 min at rt. […] Gel was stained using Coomassie Brilliant Blue R-250, bands were cut out of gel into small blocks and then destained in 500 μL of 50% MeOH in 100 mM NH4HCO3 pH 8.0 for 10 min at rt. Acetonitrile (500 μL) was added for gel blocks dehydration, after which gel blocks were digested with sequencing-grade trypsin (Promega) in 250 μL trypsin buffer (100 mM Tris pH 7.5, 100 mM NaCl, 1 mM CaCl2, 10% acetonitrile) overnight at 37 °C with vigorous shaking. […] Samples were subsequently desalted using StageTips with C18 material. […]
Tryptic peptides were analyzed on a Surveyor nano-LC system (Thermo) hyphenated to a LTQ-Orbitrap mass spectrometer (Thermo) (n = 1)[69]. […] Samples of 10 µl were separated via a trap-elute setup at 250 nL/min flow and analyzed by data-dependent acquisition of one full scan/ top 3 method. For shotgun proteomics, fragmented precursor ions measured twice within 10 s were dynamically excluded for 60 s and ions with z < 2 or unassigned charges were not analyzed. Peptide ID was determined with the Mascot search engine. […]

Take `C#CCOc1ccc(Nc2ncc(Cl)c(Nc3ccccc3NC(=O)C=C)n2)c(OC)c1` [Compound 6]: the “Mean signal, time course” value is recorded as -48.0 in test [1] (time 0 min); -46.0 in test [1] (time 5 min); -41.0 in test [1] (time 10 min); -40.0 in test [1] (time 15 min); -38.0 in test [1] (time 20 min); -35.0 in test [1] (time 25 min). Further, the “Mean signal, time course” value in test [1] (time 30 min) is -33.0; in test [1] (time 35 min) it was -32.0; in test [1] (time 40 min) it was -32.0; in test [1] (time 45 min), -30.0; in test [1] (time 50 min), -26.0; in test [1] (time 55 min) it was -29.0. The “Mean signal, time course” value in test [1] (time 60 min) is -29.0. In addition, the ZAP70 peptide phosphorylation entry in test [1] (WEL028 100 nM) is reported as “abolished peptide phosphorylation”. In test [2], the IC50 was 3.98 nM. Besides, in test [3], the “Covalent adduct by LC-MS/MS” value is listed as “covalent addition of WEL028 to Cys700”.
For the molecule “VGFR1_1206_1218 (GSSDDVRYVNAFK; UniProt P17948 1206-1218, looked up, fragment)”, in test [1], the “Relative phosphorylation (% of highest signal)” value is given as 0.24 % of highest signal.
Consider “VGFR1_1235_1247 (ATSMFDDYQGDSS; UniProt P17948 1235-1247, looked up, fragment)”, for which the “Relative phosphorylation (% of highest signal)” value in test [1] is recorded as -0.074 % of highest signal.
Take “VGFR1_1320_1332_C1320K/C1321K (KKSPPPDYNSVVL; UniProt P17948 1320-1332, looked up, variant C1320K C1321K)”: the “Relative phosphorylation (% of highest signal)” value in test [1] is recorded as 4.5 % of highest signal.
Same read-out and setting: the result for “VGFR2_944_956 (RFRQGKDYVGAIP; UniProt P35968 944-956, looked up, fragment)” reads 1.4 % of highest signal.
Regarding “VGFR2_989_1001 (EEAPEDLYKDFLT; UniProt P35968 989-1001, looked up, fragment)”, in test [1], the “Relative phosphorylation (% of highest signal)” value was 14.2 % of highest signal.
For “VGFR2_1046_1058 (DFGLARDIYKDPD; UniProt P35968 1046-1058, looked up, fragment)”, the “Relative phosphorylation (% of highest signal)” value in test [1] is 2.1 % of highest signal.
Same read-out and setting: the result for “VGFR2_1168_1180 (AQQDGKDYIVLPI; UniProt P35968 1168-1180, looked up, fragment)” reads 9.5 % of highest signal; that for “VGFR2_1207_1219_C1208S (VSDPKFHYDNTAG; UniProt P35968 1207-1219, looked up, variant C1208S)”, 1.3 % of highest signal; that for “VGFR3_1061_1073 (DIYKDPDYVRKGS; UniProt P35916 1061-1073, looked up, fragment)”, 0.1 % of highest signal.
For the molecule “VINC_815_827 (KSFLDSGYRILGA; UniProt P18206 815-827, looked up, fragment)”, the “Relative phosphorylation (% of highest signal)” value in test [1] is reported as 0.6 % of highest signal.
On to “ZAP70_485_497 (ALGADDSYYTARS; UniProt P43403 485-497, looked up, fragment)”, for which the “Relative phosphorylation (% of highest signal)” value in test [1] was 7.2 % of highest signal.
As for “ZBT16_621_633 (LRTHNGASPYQCT; UniProt Q05516 621-633, looked up, fragment)”, the “Relative phosphorylation (% of highest signal)” value in test [1] is 1.1 % of highest signal.
